Source: patent publication US20110306801A1, “EXTRACTION AND SEPARATION PROCESSES FOR RECOVERY OF ORGANIC SOLUTES FROM FEED SOURCES AND APPARATUSES FOR PERFORMING SAME” (Trans Ionics Corporation, priority 2009, published 2011)
Like-named read-outs stand apart in the source and are kept apart here. One block for each compound: values may come before it.

How the values were obtained:
[1] = approximately 6.0 grams 100-120 mesh 5 Å sieves, 10.1 mm ID column, 20.0 ml feed with 7.47 wt % ethanol in xylenes
Experimental: Commercially available Linde 5 Å molecular sieves containing binder were ground and sieved to 100-120 mesh using standard screens. After activation at 400° C., the sieves were cooled to 150° C. and poured directly into mixed xylenes.
The stopcock was opened and samples of liquid were taken every 10 minutes for analysis by gas chromatography. Data were normalized to produce a dimensionless concentration by dividing each of the outlet ethanol concentrations by that of the feed stream.

[2] = ethanol, ABE feed, cetyl alcohol/mixed xylenes 50/50 wt %
[3] = Batch separation of ethanol from xylenes using 5 Å zeolite molecular sieves; type: physicochemical; settings: 10.0 grams feed (8.00 wt % ethanol, 0.07 wt % water, balance mixed xylenes) with 5.0 gm zeolite, 40° C.
[4] = cetyl alcohol/oleic acid 50/50 wt %, 5:1, 75° C.
Experimental: One measure of the effectiveness of a solvent for extracting solutes is termed the distribution coefficient, which is calculated as follows in Formula (1):
(§1) DC=(Wo/Ws)ext/(Wo/Ww)raff (1)
(§2) The slope of this line is the distribution coefficient.
Mixtures of Cetyl Alcohol and Other Solvents For Extraction of Ethanol. Mixtures of cetyl alcohol with other solvents were used in order to produce a resulting extraction solvent having a lower melting point than pure cetyl alcohol. […] This solvent mixture was tested for ethanol extraction at a solvent:feed ratio of 5:1 at 75° C.

[5] = Extraction of ethanol from water with cetyl alcohol, equilibrium data and distribution coefficient; type: physicochemical; settings: aqueous ethanol feed, 75° C.
Experimental: as §1, §2
Cetyl Alcohol as an Extraction Solvent For Ethanol. Cetyl alcohol was used as a solvent for ethanol extraction. Because cetyl alcohol melts between 47° C. and 50° C. and therefore is a solid at both room temperature (25° C.) and typical fermentation temperatures (40° C.), it has been overlooked as an extraction solvent. Cetyl alcohol was tested at 75° C. at a solvent:feed ratio of 5:1.

volume of effluent exited the column before ethanol appeared in the product [1]: 20 mL
Extract (Wo/Ws) ([2]; 5:1, 40° C., feed Wo/Ww 0.002): 0.00002 Wo/Ws
Raffinate (Wo/Ww) ([2]; 5:1, 40° C., feed Wo/Ww 0.002): 0.00009 Wo/Ww
Extract (Wo/Ws) ([2]; 5:1, 40° C., feed Wo/Ww 0.03): 0.0005 Wo/Ws
Raffinate (Wo/Ww) ([2]; 5:1, 40° C., feed Wo/Ww 0.03): 0.0025 Wo/Ww
Extract (Wo/Ws) ([2]; 5:1, 40° C., feed Wo/Ww 0.06): 0.0010 Wo/Ws
Raffinate (Wo/Ww) ([2]; 5:1, 40° C., feed Wo/Ww 0.06): 0.0052 Wo/Ww
Extract (Wo/Ws) ([2]; 5:1, 40° C., feed Wo/Ww 0.12): 0.0021 Wo/Ws
Raffinate (Wo/Ww) ([2]; 5:1, 40° C., feed Wo/Ww 0.12): 0.0102 Wo/Ww
Raffinate (Wo/Ww) ([2]; 5:1, 40° C., feed Wo/Ww 0.15): 0.0126 Wo/Ww
Extract (Wo/Ws) ([2]; 5:1, 40° C., feed Wo/Ww 0.19): 0.0032 Wo/Ws
Raffinate (Wo/Ww) ([2]; 5:1, 40° C., feed Wo/Ww 0.19): 0.0152 Wo/Ww
Extract (Wo/Ws) ([2]; 5:1, 75° C., feed Wo/Ww 0.002): 0.00003 Wo/Ws
Raffinate (Wo/Ww) ([2]; 5:1, 75° C., feed Wo/Ww 0.002): 0.00007 Wo/Ww
Extract (Wo/Ws) ([2]; 5:1, 75° C., feed Wo/Ww 0.03): 0.0009 Wo/Ws
Raffinate (Wo/Ww) ([2]; 5:1, 75° C., feed Wo/Ww 0.03): 0.0021 Wo/Ww
Extract (Wo/Ws) ([2]; 5:1, 75° C., feed Wo/Ww 0.06): 0.0012 Wo/Ws
Raffinate (Wo/Ww) ([2]; 5:1, 75° C., feed Wo/Ww 0.06): 0.0043 Wo/Ww
Extract (Wo/Ws) ([2]; 5:1, 75° C., feed Wo/Ww 0.12): 0.0025 Wo/Ws
Raffinate (Wo/Ww) ([2]; 5:1, 75° C., feed Wo/Ww 0.12): 0.0084 Wo/Ww
Extract (Wo/Ws) ([2]; 5:1, 75° C., feed Wo/Ww 0.15): 0.0031 Wo/Ws
Raffinate (Wo/Ww) ([2]; 5:1, 75° C., feed Wo/Ww 0.15): 0.0105 Wo/Ww
Raffinate (Wo/Ww) ([2]; 5:1, 75° C., feed Wo/Ww 0.19): 0.0125 Wo/Ww
ethanol content leveled out after contact with 5 Å zeolite pellets [3]: 1.07 wt %
Extract (Wo/Ws) ([4]; feed Wo/Ww 0.2000): 0.0316 Wo/Ws
Extract (Wo/Ws) ([4]; feed Wo/Ww 0.5000): 0.0848 Wo/Ws
Structure (SMILES): CCO [ethanol]

Structure (SMILES): CCCCCCCCCCCCCCCCO [Cetyl alcohol]
emulsion formation as extraction solvent [5]: no indication of the formation of emulsions
